Measured values published in the supplement of paper PMC10331698.
± gives the standard deviation of the averaged measurements.

Key:
Assay in all cases: level (log10 ratio to DMSO vehicle control); higher = higher biomarker level / cell amount than vehicle control
[1] = compound: O=S(=O)(O)CCC(F)(F)C(F)(F)C(F)(F)C(F)(F)F [4:2 Fluorotelomer sulfonic acid]; conditions: in DMSO
Method: (§1)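 BioMAP Diversity Plus panel of 12 human primary cell co-culture systems (3C, 4H, LPS, SAg, BT, BF4T, BE3C, CASM3C, HDF3CGF, KF3CT, MyoF, Mphg). Compounds were added 1 h before stimulation and left for 24 h (MyoF 48 h; BT 72 h for soluble read-outs or 6 d for IgG). Biomarkers were read by ELISA, cytotoxicity by SRB, PBMC viability and proliferation by Alamar Blue. Each well value was divided by the mean of 8 DMSO control wells on the same plate and log10 transformed; duplicate blinded samples were tested at 4 concentrations.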

[2] = compound: FC(F)(I)C(F)(F)C(F)(F)C(F)(F)C(F)(F)C(F)(F)I [1,6-Diiodoperfluorohexane]; conditions: 6700 nM; in DMSO
Method: as §1

Perfluorooctanoic acid = compound: O=C(O)C(F)(F)C(F)(F)C(F)(F)C(F)(F)C(F)(F)C(F)(F)C(F)(F)F [Perfluorooctanoic acid]; conditions: in DMSO
Method: as §1

Methotrexate = compound: CN(Cc1cnc2nc(N)nc(N)c2n1)c1ccc(C(=O)N[C@@H](CCC(=O)O)C(=O)O)cc1 [Methotrexate]; conditions: in DMSO
Method: as §1

[3] = compound: C=CC(=O)OCCC(F)(F)C(F)(F)C(F)(F)C(F)(F)C(F)(F)C(F)(F)C(F)(F)C(F)(F)F [8:2 Fluorotelomer acrylate]; conditions: in DMSO
Method: as §1

[4] = compound: O=C(O)C(F)(F)C(F)(F)C(F)(F)C(F)(F)C(F)(F)C(F)(F)C(F)(F)F [Ammonium perfluorooctanoate]; conditions: in DMSO
Method: as §1

[5] = compound: OCCCCC(F)(F)C(F)(F)C(F)(F)C(F)(F)F [4:4 Fluorotelomer alcohol]; conditions: in DMSO
Method: as §1

Row | Test System | level (log10) ([1]; 6700 nM) | level (log10) ([1]; 20000 nM) | level (log10) ([1]; 60000 nM) | level (log10) [2] | level (log10) (Perfluorooctanoic acid; 6700 nM) | level (log10) (Perfluorooctanoic acid; 20000 nM) | level (log10) (Perfluorooctanoic acid; 60000 nM) | level (log10) (Methotrexate; 1500 nM) | level (log10) (Methotrexate; 4400 nM) | level (log10) (Methotrexate; 13000 nM) | level (log10) (Methotrexate; 40000 nM) | level (log10) ([3]; 6700 nM) | level (log10) ([3]; 20000 nM) | level (log10) ([3]; 60000 nM) | level (log10) ([4]; 6700 nM) | level (log10) ([4]; 20000 nM) | level (log10) ([4]; 60000 nM) | level (log10) ([5]; 6700 nM) | level (log10) ([5]; 20000 nM) | level (log10) ([5]; 60000 nM)
1 | MyoF:CD106/VCAM-1 | -0.0015 ± 0.013 | -0.0115 ± 0.0092 | -0.004 ± 0.0014 | -0.373 | 0.0065 ± 0.011 | 0.004 ± 0.0028 | 0.0095 ± 0.00071 | 0.0165 ± 0.015 | -0.0045 ± 0.013 | 0.038 ± 0.024 | 0.0095 ± 0.0092 | -0.012 ± 0.0071 | -0.0335 ± 0.0078 | -0.027 ± 0.023 | -0.011 ± 0.016 | -0.017 ± 0.0085 | -0.017 ± 0.0057 | -0.004 ± 0.016 | -0.01 ± 0.018 | -0.0055 ± 0.0078
2 | CASM3C:CD87/uPAR | 0 ± 0.027 | 0.0025 ± 0.0078 | -0.0165 ± 0.037 | 0.001 | -0.049 ± 0.047 | -0.021 ± 0.082 | -0.0035 ± 0.067 | 0.0385 ± 0.037 | 0.033 ± 0.023 | 0.0585 ± 0.015 | 0.04 ± 0.048 | -0.035 ± 0.021 | -0.027 ± 0.011 | -0.004 ± 0.0014 | 0.003 ± 0.03 | 0.008 ± 0.0028 | 0.0045 ± 0.023 | -0.009 ± 0.028 | -0.0135 ± 0.029 | -0.0045 ± 0.025
3 | HDF3CGF:CD54/ICAM-1 | -0.013 ± 0.016 | -0.01 ± 0.017 | -0.0175 ± 0.013 | -0.343 | 0.005 ± 0.0057 | 0.0055 ± 0.011 | -0.0035 ± 0.005 | -0.0015 ± 0.00071 | 0.0045 ± 0.005 | 0.0055 ± 0.013 | -0.0065 ± 0.025 | 0.034 ± 0.04 | 0.044 ± 0.059 | 0.0395 ± 0.088 | -0.0145 ± 0.015 | -0.043 ± 0.0057 | -0.054 ± 0.016 | -0.0135 ± 0.0064 | -0.003 ± 0.011 | -0.0125 ± 0.013
4 | MyoF:CXCL8/IL-8 | 0 ± 0.0028 | 0.003 ± 0.02 | -0.0055 ± 0.018 | 0.153 | 0.022 ± 0.0028 | 0.0725 ± 0.026 | 0.078 ± 0.02 | 0.0055 ± 0.028 | 0.0135 ± 0.016 | -0.0035 ± 0.033 | 0.0105 ± 0.022 | -0.003 ± 0.02 | 0.008 ± 0.018 | 0.029 ± 0.0057 | 0.019 ± 0.011 | 0.004 ± 0.017 | 0.036 ± 0.065 | 0.041 ± 0.075 | 0.0345 ± 0.1 | 0.0695 ± 0.13
5 | lMphg:CD40 | -0.008 ± 0.0028 | -0.015 ± 0.021 | -0.026 ± 0.011 | -0.029 | -0.0035 ± 0.021 | -0.021 ± 0.0057 | -0.018 ± 0.014 | 0.0125 ± 0.005 | 0.0005 ± 0.013 | -0.0155 ± 0.023 | 0.0045 ± 0.0021 | -0.014 ± 0.025 | -0.0065 ± 0.0078 | -0.0225 ± 0.021 | 0.0115 ± 0.053 | -0.0145 ± 0.0092 | -0.0585 ± 0.023 | -0.0295 ± 0.005 | -0.0195 ± 0.029 | -0.0055 ± 0.033
6 | BE3C:MMP-1 | 0.002 ± 0.0014 | -0.0035 ± 0.0035 | 0.038 ± 0.057 | 0.014 | -0.0085 ± 0.012 | 0.044 | 0.226 ± 0.035 | -0.028 ± 0.024 | -0.011 ± 0.044 | 0.034 ± 0.016 | 0.031 ± 0.014 | -0.015 ± 0.0085 | -0.013 ± 0.023 | 0.0365 ± 0.08 | 0.034 ± 0.018 | 0.113 ± 0.014 | 0.283 ± 0.041 | 0.0005 ± 0.03 | 0.006 ± 0.02 | 0.022 ± 0.05
7 | KF3CT:CXCL9/MIG | 0.0005 ± 0.0021 | 0.004 ± 0.016 | 0.0105 ± 0.016 | -0.088 | 0.006 ± 0.016 | 0.006 ± 0.016 | 0.01 ± 0.016 | 0.001 ± 0.0028 | 0.002 ± 0.016 | -0.0005 ± 0.0021 | 0.001 ± 0.0014 | -0.0065 ± 0.0092 | 0.0005 ± 0.0035 | 0.011 ± 0.0085 | 0.005 ± 0.0014 | 0.0095 ± 0.0035 | 0.0115 ± 0.016 | 0.007 ± 0.023 | 0.0105 ± 0.011 | 0.0125 ± 0.022
8 | CASM3C:CXCL9/MIG | -0.04 ± 0.03 | -0.0225 ± 0.013 | 0.006 ± 0.033 | -0.018 | 0.016 ± 0.0085 | -0.0065 ± 0.04 | 0.042 ± 0.076 | 0.0375 ± 0.021 | 0.0225 ± 0.0092 | 0.0165 ± 0.026 | 0.0615 ± 0.035 | 0.026 ± 0.0071 | -0.0055 ± 0.066 | 0.011 ± 0.065 | -0.001 ± 0.016 | 0.017 ± 0.017 | 0.0225 ± 0.028 | 0.0115 ± 0.0035 | 0.0065 ± 0.026 | 0.0345 ± 0.059
9 | lMphg:IL-1alpha | 0.026 ± 0.048 | 0.0125 ± 0.032 | 0.007 ± 0.021 | 0.024 | -0.0105 ± 0.0021 | -0.0085 ± 0.026 | 0.0545 ± 0.026 | -0.0335 ± 0.097 | -0.0545 ± 0.083 | -0.041 ± 0.057 | -0.028 ± 0.047 | -0.012 | -0.007 ± 0.021 | 0.035 ± 0.059 | 0.0005 ± 0.026 | 0.0005 ± 0.0064 | 0.004 ± 0.014 | -0.0075 ± 0.005 | -0.0125 ± 0.005 | 0.0115 ± 0.015
10 | 3C:CD142/Tissue Factor | -0.007 ± 0.044 | 0.0225 ± 0.011 | 0.024 ± 0.025 | -0.001 | 0.0395 ± 0.057 | 0.0135 ± 0.071 | 0.049 ± 0.011 | -0.0325 ± 0.042 | -0.0135 ± 0.033 | -0.0175 ± 0.081 | -0.005 ± 0.061 | 0.0065 ± 0.029 | 0.0115 ± 0.0035 | 0.0155 ± 0.021 | -0.0145 ± 0.0035 | -0.0045 ± 0.0021 | -0.036 ± 0.017 | -0.0215 ± 0.025 | -0.018 ± 0.042 | 0.0155 ± 0.0092
11 | CASM3C:IL-6 | 0.0015 ± 0.0092 | -0.0065 ± 0.0078 | 0.001 ± 0.028 | -0.063 | -0.0135 ± 0.019 | -0.022 ± 0.027 | -0.008 ± 0.031 | -0.035 ± 0.041 | -0.087 ± 0.076 | -0.009 ± 0.023 | -0.039 ± 0.041 | -0.023 ± 0.0099 | -0.017 ± 0.027 | 0.0105 ± 0.05 | -0.0035 ± 0.025 | -0.024 ± 0.048 | -0.018 ± 0.05 | 0.0005 ± 0.016 | -0.0215 ± 0.025 | 0.0155 ± 0.077
12 | MyoF:bFGF | -0.001 ± 0.0071 | 0.0025 ± 0.028 | 0.0055 ± 0.022 | -0.127 | -0.023 ± 0.0057 | -0.0275 ± 0.0035 | -0.0085 ± 0.03 | -0.0095 ± 0.015 | -0.0045 ± 0.021 | 0.009 ± 0.0071 | -0.0095 ± 0.0035 | -0.015 ± 0.0028 | -0.015 ± 0.014 | -0.0025 ± 0.0092 | 0 ± 0.013 | -0.007 ± 0.014 | 0.0015 ± 0.015 | 0.0035 ± 0.0035 | -0.009 ± 0.021 | 0.005 ± 0.042
